Columns and labels:
[1] = DRUGMATRIX: Atrial Natriuretic Factor (ANF) radioligand binding (ligand: [125I] ANF (rat)); format: cell membranes, Cavia porcellus, Dunkin-Hartley, Adrenal gland, Membrane; conditions: Not Active = under 50% inhibition at 10 µM
[2] = DRUGMATRIX: beta-Lactamase enzyme inhibition (substrate: Nitrocefin); design: species or system Bacillus cereus; conditions: Not Active = under 50% inhibition at 10 µM
[3] = DRUGMATRIX: Calcium Channel Type L, Benzothiazepine radioligand binding (ligand: [3H] Diltiazem); format: cell membranes, Rattus norvegicus, Wistar, Brain, Membrane; conditions: Not Active = under 50% inhibition at 10 µM
Thromboxane-A synthase = molecular target: T1, Thromboxane-A synthase (Homo sapiens, UniProt P24557); assay: biochemical; format: tissue-based, Platelet; conditions: platelet;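 further: enzyme inhibition assay with PGH2 supplied as substrate; in other assays of this panel Not Active means under 50% inhibition at 10 µM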
T1 sequence (P24557 whole entry): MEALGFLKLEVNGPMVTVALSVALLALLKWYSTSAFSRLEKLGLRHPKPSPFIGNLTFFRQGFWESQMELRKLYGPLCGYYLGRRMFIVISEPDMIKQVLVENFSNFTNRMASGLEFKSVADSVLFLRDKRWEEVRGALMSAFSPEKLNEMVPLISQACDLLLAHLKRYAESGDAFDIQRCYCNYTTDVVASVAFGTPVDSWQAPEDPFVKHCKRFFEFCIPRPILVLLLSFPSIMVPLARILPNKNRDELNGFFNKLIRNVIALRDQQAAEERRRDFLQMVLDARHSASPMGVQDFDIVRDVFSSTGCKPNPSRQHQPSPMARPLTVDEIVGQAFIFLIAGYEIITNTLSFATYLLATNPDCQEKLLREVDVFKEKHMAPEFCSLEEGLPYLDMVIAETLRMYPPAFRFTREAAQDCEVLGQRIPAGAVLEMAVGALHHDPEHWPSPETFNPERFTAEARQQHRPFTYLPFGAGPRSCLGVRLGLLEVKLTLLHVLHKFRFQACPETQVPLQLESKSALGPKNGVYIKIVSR

[4] = molecular target: C-C chemokine receptor type 2 (Homo sapiens, UniProt P41597); format: cell membranes, CHO-K1, Membrane; conditions: cho-k1; further: in other assays of this panel Not Active means under 50% inhibition at 10 µM
C-C chemokine receptor type 2, sequence (P41597 whole entry): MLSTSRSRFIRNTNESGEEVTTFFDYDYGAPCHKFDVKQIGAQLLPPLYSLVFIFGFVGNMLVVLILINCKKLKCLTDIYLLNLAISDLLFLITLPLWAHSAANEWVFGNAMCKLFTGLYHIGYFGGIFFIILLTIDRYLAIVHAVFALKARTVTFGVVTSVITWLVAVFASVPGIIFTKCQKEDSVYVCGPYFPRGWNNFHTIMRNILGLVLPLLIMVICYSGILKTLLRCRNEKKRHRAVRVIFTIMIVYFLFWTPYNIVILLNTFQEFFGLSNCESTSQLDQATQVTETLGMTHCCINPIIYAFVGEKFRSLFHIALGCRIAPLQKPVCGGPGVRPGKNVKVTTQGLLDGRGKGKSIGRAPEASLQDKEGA

[5] = DRUGMATRIX: GABAA, Flunitrazepam, Central radioligand binding (ligand: [3H] Flunitrazepam); format: cell membranes, Rattus norvegicus, Wistar, Brain, Membrane; conditions: Not Active = under 50% inhibition at 10 µM
[6] = DRUGMATRIX: Glutamate, Kainate radioligand binding (ligand: [3H] Kainic acid); format: cell membranes, Rattus norvegicus, Wistar, Brain, Membrane; conditions: Not Active = under 50% inhibition at 10 µM
[7] = DRUGMATRIX: Phorbol Ester radioligand binding (ligand: [3H] PDBu); format: cell membranes, Mus musculus, ICR, Brain, Membrane; conditions: Not Active = under 50% inhibition at 10 µM
Progesterone receptor = molecular target: T2, Progesterone receptor (Bos taurus, UniProt Q690N0); assay: DRUGMATRIX: Progesterone radioligand binding (ligand: [3H] R-5020); format: tissue-based, Uterus; conditions: Not Active = under 50% inhibition at 10 µM
T2 sequence (Q690N0 whole entry): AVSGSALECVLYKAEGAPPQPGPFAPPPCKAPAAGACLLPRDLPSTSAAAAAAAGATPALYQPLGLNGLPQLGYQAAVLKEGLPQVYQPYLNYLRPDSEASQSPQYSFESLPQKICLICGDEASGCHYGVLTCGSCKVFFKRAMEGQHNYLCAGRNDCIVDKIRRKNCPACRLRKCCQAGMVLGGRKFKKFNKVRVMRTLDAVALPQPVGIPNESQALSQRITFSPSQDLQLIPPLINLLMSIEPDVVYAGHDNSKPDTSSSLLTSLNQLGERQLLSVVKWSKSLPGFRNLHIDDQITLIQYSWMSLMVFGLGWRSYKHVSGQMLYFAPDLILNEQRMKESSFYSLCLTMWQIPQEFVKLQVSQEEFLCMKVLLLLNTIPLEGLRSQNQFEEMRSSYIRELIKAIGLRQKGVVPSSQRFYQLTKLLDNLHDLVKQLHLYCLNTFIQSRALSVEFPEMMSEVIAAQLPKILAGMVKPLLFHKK

[8] = molecular target: T3, Angiotensin-converting enzyme (Oryctolagus cuniculus, UniProt P12822); assay: biochemical; format: tissue-based, Lung;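 further: enzymatic inhibition of angiotensin-converting enzyme measured with FAPGG as the substrate; in other assays of this panel Not Active means under 50% inhibition at 10 µM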
T3 sequence (P12822 whole entry): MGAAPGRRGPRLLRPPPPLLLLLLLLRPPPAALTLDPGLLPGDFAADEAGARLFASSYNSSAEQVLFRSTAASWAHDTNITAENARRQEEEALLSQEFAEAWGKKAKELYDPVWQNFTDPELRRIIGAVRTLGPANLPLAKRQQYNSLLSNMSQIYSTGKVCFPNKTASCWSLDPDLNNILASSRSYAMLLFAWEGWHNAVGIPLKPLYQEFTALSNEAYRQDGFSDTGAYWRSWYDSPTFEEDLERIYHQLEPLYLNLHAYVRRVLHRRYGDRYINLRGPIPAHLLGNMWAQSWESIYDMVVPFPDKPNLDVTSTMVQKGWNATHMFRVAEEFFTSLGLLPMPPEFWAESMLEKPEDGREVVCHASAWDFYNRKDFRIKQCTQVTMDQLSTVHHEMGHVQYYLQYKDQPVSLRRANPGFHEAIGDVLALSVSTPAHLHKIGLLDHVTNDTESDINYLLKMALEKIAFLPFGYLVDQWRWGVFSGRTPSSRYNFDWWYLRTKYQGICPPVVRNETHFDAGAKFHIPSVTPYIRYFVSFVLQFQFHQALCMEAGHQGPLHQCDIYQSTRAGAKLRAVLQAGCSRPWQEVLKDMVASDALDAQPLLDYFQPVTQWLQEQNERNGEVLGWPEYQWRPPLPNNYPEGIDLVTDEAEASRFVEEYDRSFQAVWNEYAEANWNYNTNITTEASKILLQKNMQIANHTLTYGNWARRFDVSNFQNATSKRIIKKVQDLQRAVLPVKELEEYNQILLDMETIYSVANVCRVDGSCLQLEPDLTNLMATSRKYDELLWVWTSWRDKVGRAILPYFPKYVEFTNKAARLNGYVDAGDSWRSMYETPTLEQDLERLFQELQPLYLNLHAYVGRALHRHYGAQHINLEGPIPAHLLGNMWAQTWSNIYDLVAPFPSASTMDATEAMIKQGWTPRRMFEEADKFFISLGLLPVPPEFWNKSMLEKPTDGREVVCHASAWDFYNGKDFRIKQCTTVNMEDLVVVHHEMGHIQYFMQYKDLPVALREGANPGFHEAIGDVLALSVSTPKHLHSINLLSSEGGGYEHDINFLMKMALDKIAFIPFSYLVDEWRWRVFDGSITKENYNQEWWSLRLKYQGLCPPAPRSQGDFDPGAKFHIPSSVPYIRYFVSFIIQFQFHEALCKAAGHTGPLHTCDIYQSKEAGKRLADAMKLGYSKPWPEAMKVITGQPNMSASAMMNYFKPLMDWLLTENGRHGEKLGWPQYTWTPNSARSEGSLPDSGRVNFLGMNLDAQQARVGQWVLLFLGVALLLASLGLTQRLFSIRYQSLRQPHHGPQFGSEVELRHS

Cc1ccc(C(=O)C(C)CN2CCCCC2)cc1 (configuration not stated) [TOLPERISONE]
Not Active: IC50 [1] | Ki [1] | IC50 [2] | Ki [2] | IC50 [3] | Ki [3] | IC50 (Thromboxane-A synthase) | IC50 [4] | IC50 [5] | Ki [5] | IC50 [6] | Ki [6] | IC50 [7] | Ki [7] | IC50 (Progesterone receptor) | IC50 [8]

NC(CO)(CO)CO [TROMETHAMINE]
Not Active: IC50 [1] | Ki [1] | IC50 [2] | Ki [2] | IC50 [3] | Ki [3] | IC50 (Thromboxane-A synthase) | IC50 [4] | IC50 [5] | Ki [5] | IC50 [6] | Ki [6] | IC50 [7] | Ki [7] | IC50 (Progesterone receptor) | IC50 [8]

COc1cc(C(=O)NC2CCCNC2)cc(OC)c1OC (configuration not stated) [TROXIPIDE]
Not Active: IC50 [1] | Ki [1] | IC50 [2] | Ki [2] | IC50 [3] | Ki [3] | IC50 (Thromboxane-A synthase) | IC50 [4] | IC50 [5] | Ki [5] | IC50 [6] | Ki [6] | IC50 [7] | Ki [7] | IC50 (Progesterone receptor) | IC50 [8]

CC(C)[C@H](N)C(=O)OCCOCn1cnc2c(=O)nc(N)[nH]c21 [VALACYCLOVIR]
Not Active: IC50 [1] | Ki [1] | IC50 [2] | Ki [2] | IC50 [3] | Ki [3] | IC50 (Thromboxane-A synthase) | IC50 [4] | IC50 [5] | Ki [5] | IC50 [6] | Ki [6] | IC50 [7] | Ki [7] | IC50 (Progesterone receptor) | IC50 [8]

CN[C@H](CC(C)C)C(=O)N[C@H]1C(=O)N[C@@H](CC(N)=O)C(=O)N[C@H]2C(=O)N[C@H]3C(=O)N[C@H](C(=O)N[C@H](C(=O)O)c4cc(O)cc(O)c4-c4cc3ccc4O)[C@H](O)c3ccc(c(Cl)c3)Oc3cc2cc(c3O[C@@H]2O[C@H](CO)[C@@H](O)[C@H](O)[C@H]2O[C@H]2C[C@](C)(N)[C@H](O)[C@H](C)O2)Oc2ccc(cc2Cl)[C@H]1O [VANCOMYCIN]
Not Active: IC50 [1] | Ki [1] | IC50 [2] | Ki [2] | IC50 [3] | Ki [3] | IC50 (Thromboxane-A synthase) | IC50 [4] | IC50 [5] | Ki [5] | IC50 [6] | Ki [6] | IC50 [7] | Ki [7] | IC50 (Progesterone receptor) | IC50 [8]

COc1ccc(C(CN(C)C)C2(O)CCCCC2)cc1 (configuration not stated) [VENLAFAXINE]
Not Active: IC50 [1] | Ki [1] | IC50 [2] | Ki [2] | IC50 [3] | Ki [3] | IC50 (Thromboxane-A synthase) | IC50 [4] | IC50 [5] | Ki [5] | IC50 [6] | Ki [6] | IC50 [7] | Ki [7] | IC50 (Progesterone receptor) | IC50 [8]

COC(=O)[C@@H]1[C@H]2C[C@H]3c4[nH]c5ccccc5c4CCN3C[C@@H]2CC[C@@H]1O [YOHIMBINE]
Not Active: IC50 [1] | Ki [1] | IC50 [2] | Ki [2] | IC50 [3] | Ki [3] | IC50 (Thromboxane-A synthase) | IC50 [4] | IC50 [5] | Ki [5] | IC50 [6] | Ki [6] | IC50 [7] | Ki [7] | IC50 (Progesterone receptor) | IC50 [8]
